Experimental data as given in the Kinase Knowledgebase extract (Sharma et al. 2016).

How the values were obtained:
[1] = biological target: EGFR (UniProt P00533)
[2] = biological target: CDK2 (UniProt P24941); assay: Enzyme Assay

EGFR, sequence (P00533 whole entry, looked up): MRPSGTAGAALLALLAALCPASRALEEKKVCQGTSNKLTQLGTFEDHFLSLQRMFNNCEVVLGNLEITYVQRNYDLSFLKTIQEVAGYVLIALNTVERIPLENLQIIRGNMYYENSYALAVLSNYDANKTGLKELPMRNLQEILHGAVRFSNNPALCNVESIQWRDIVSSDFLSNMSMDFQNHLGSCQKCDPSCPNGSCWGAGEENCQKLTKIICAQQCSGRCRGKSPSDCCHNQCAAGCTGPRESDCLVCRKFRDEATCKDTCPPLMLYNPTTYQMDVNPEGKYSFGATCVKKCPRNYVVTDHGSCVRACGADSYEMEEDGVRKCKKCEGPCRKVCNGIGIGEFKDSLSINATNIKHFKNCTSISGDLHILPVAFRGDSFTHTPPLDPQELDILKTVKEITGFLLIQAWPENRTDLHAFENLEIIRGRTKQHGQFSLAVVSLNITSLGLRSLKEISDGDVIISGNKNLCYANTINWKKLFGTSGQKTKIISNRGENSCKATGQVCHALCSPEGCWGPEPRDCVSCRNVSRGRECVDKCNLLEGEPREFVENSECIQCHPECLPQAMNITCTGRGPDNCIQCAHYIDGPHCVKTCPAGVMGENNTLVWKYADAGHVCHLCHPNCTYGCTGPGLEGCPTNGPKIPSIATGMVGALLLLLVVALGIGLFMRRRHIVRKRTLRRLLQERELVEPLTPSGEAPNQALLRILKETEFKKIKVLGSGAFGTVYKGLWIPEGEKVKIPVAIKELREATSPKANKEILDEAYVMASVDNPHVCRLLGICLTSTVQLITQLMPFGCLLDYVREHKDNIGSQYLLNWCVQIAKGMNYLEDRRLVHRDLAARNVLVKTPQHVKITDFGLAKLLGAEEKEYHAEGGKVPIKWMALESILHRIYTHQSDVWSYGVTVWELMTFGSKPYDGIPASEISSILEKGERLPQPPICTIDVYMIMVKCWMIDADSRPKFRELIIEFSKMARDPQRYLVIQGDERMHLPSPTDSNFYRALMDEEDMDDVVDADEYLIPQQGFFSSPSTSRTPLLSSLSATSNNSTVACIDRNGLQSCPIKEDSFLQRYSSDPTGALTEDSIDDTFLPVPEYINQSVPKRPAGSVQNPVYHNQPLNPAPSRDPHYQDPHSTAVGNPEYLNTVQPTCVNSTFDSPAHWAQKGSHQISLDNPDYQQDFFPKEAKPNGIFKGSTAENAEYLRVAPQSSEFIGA

IC50 [1]	IC50 [2]	Structure (SMILES)
16.3 µM	–	O=C1Nc2cccc(-c3ccncc3)c2/C1=C/c1cc2ccccc2[nH]1
> 20 µM	–	CCOC(=O)c1[nH]c(/C=C2\C(=O)Nc3cccc(C4CCNCC4)c32)c(CCC(=O)O)c1C
> 20 µM	–	CCc1cc(CCC(=O)O)c(/C=C2\C(=O)Nc3cccc(C4CCNCC4)c32)[nH]1
> 20 µM	0.01 µM	Cc1nc[nH]c1/C=C1\C(=O)Nc2cccc(C3CCNCC3)c21
> 20 µM	–	O=C1Nc2cccc(C3CCNCC3)c2/C1=C/c1cc2ccccc2[nH]1
> 20 µM	–	Cc1[nH]c(/C=C2\C(=O)Nc3cccc(-c4ccccn4)c32)c(C)c1C(=O)N1CCN(C)CC1
> 20 µM	–	Cc1cc(C(=O)O)c(/C=C2\C(=O)Nc3cccc(-c4ccncc4)c32)[nH]1
19.1 µM	1.96 µM	O=C1Nc2cccc(C3CCNCC3)c2/C1=C/c1cc2cc(OCCN3CCOCC3)ccc2[nH]1
> 20 µM	–	CCc1cc(CCC(=O)O)c(/C=C2\C(=O)Nc3cccc(-c4ccncc4)c32)[nH]1
> 20 µM	–	Cc1[nH]c(/C=C2\C(=O)Nc3cccc(C4CCNCC4)c32)c(-c2ccccc2)c1C(=O)Nc1ccncc1
–	0.26 µM	CN1CCc2c(c[nH]c2/C=C2\C(=O)Nc3cccc(C4CCNCC4)c32)C1=O
> 20 µM	–	Cc1[nH]c(/C=C2\C(=O)Nc3cccc(-c4ccncc4)c32)c(C)c1C(=O)N1CCN(C)CC1
> 20 µM	–	Cc1[nH]c(/C=C2\C(=O)Nc3cccc(C4CCNCC4)c32)c(C)c1CC(=O)O
> 20 µM	–	Cc1cc(C(=O)O)[nH]c1/C=C1\C(=O)Nc2cccc(C3CCNCC3)c21
17.9 µM	–	O=C1Nc2cccc(-c3ccncc3)c2/C1=C/c1cc2cc(OCCN3CCOCC3)ccc2[nH]1
> 20 µM	–	Cc1cc(C(=O)O)[nH]c1/C=C1\C(=O)Nc2cccc(-c3ccncc3)c21
> 20 µM	–	CCN(CC)CCNC(=O)c1c(C)[nH]c(/C=C2\C(=O)Nc3cccc(-c4ccncc4)c32)c1C
> 20 µM	–	O=C1Nc2cccc(C3CCNCC3)c2/C1=C/c1[nH]c2c(c1CCCN1CCOCC1)CCCC2
> 20 µM	–	O=C1Nc2cccc(-c3ccncc3)c2/C1=C/c1[nH]c2c(c1CCCN1CCOCC1)CCCC2
> 20 µM	–	Cc1ccc(/C=C2\C(=O)Nc3cccc(C4CCNCC4)c32)s1
> 20 µM	–	CCOC(=O)c1c(C)[nH]c(/C=C2\C(=O)Nc3cccc(-c4ccccn4)c32)c1CCCN1CCN(C)CC1
> 20 µM	0.009 µM	O=C1Nc2cccc(C3CCNCC3)c2/C1=C/c1[nH]cc2c1CCOC2=O
> 20 µM	–	Cc1[nH]c(/C=C2\C(=O)Nc3cccc(-c4ccc(N)nc4)c32)c(C)c1C(=O)N1CCN(C)CC1
14.7 µM	–	CCOC(=O)c1[nH]c(/C=C2\C(=O)Nc3cccc(C4CCNCC4)c32)c2c1CCCC2
> 20 µM	–	Cc1[nH]c(/C=C2\C(=O)Nc3cccc(-c4nccs4)c32)c(C)c1C(=O)N1CCN(C)CC1
> 20 µM	–	O=C(O)CCc1c(/C=C2\C(=O)Nc3cccc(-c4ccncc4)c32)[nH]c2c1CCCC2
> 20 µM	–	Cc1cc(C)c(/C=C2\C(=O)Nc3cccc(-c4ccncc4)c32)[nH]1

IC50 [1]	IC50 [2]	Structure (SMILES)
> 20 µM	–	CCOC(=O)c1c(C)[nH]c(/C=C2\C(=O)Nc3cccc(-c4ccncc4)c32)c1CCC(=O)O
> 20 µM	–	Cc1cc(C(=O)N2CCN(C)CC2)[nH]c1/C=C1\C(=O)Nc2cccc(C3CCNCC3)c21
> 20 µM	–	CCOC(=O)c1c(C)[nH]c(/C=C2\C(=O)Nc3cccc(-c4cncc(C(=O)O)c4)c32)c1CCCN1CCN(C)CC1
–	0.06 µM	O=C1Nc2cccc(C3CCNCC3)c2/C1=C/c1[nH]cc2c1CCNC2=O
> 20 µM	0.02 µM	Cc1c(C(=O)N2CCOCC2)c[nH]c1/C=C1\C(=O)Nc2cccc(C3CCNCC3)c21
> 20 µM	–	Cc1[nH]c(/C=C2\C(=O)Nc3cccc(C4CCNCC4)c32)c(C)c1CCC(=O)O
> 20 µM	–	Cc1[nH]c(/C=C2\C(=O)Nc3cccc(-c4ccncc4)c32)c(C)c1CCC(=O)O
> 20 µM	–	CCN(CC)CCNC(=O)c1c(C)[nH]c(/C=C2\C(=O)Nc3cccc(C4CCNCC4)c32)c1C
> 20 µM	0.75 µM	Cc1c(C(=O)N2CCCCC2)c[nH]c1/C=C1\C(=O)Nc2cccc(-c3ccncc3)c21
> 20 µM	0.03 µM	Cc1nc[nH]c1/C=C1\C(=O)Nc2cccc(-c3ccncc3)c21
> 20 µM	–	Cc1[nH]c(/C=C2\C(=O)Nc3cccc(-c4cncc(C(=O)O)c4)c32)c(C)c1C(=O)N1CCN(C)CC1
> 20 µM	–	Cc1[nH]c(/C=C2\C(=O)Nc3cccc(-c4cccnc4)c32)c(C)c1C(=O)N1CCN(C)CC1
> 20 µM	–	CCOC(=O)c1c(C)[nH]c(/C=C2\C(=O)Nc3cccc(-c4cccnc4)c32)c1CCCN1CCN(C)CC1
> 20 µM	–	O=C1Nc2cccc(C3CCNCC3)c2/C1=C/c1ccc(N2CCOCC2)cc1
> 20 µM	–	Cc1[nH]c(/C=C2\C(=O)Nc3cccc(-c4ccncc4)c32)c(C)c1CC(=O)O
> 20 µM	–	CCOC(=O)c1c(C)[nH]c(/C=C2\C(=O)Nc3cccc(-c4ccc(N)nc4)c32)c1CCCN1CCN(C)CC1
> 20 µM	–	Cc1cc(CCC(=O)O)c(/C=C2\C(=O)Nc3cccc(-c4ccncc4)c32)[nH]1
> 20 µM	–	O=C1Nc2cccc(C3CCNCC3)c2/C1=C/c1cc2c([nH]1)CCCC2
> 20 µM	–	Cc1[nH]c(/C=C2\C(=O)Nc3cccc(-c4cncnc4)c32)c(C)c1C(=O)N1CCN(C)CC1
> 20 µM	0.02 µM	Cc1c(C(=O)N2CCCCC2)c[nH]c1/C=C1\C(=O)Nc2cccc(C3CCNCC3)c21
> 20 µM	–	CCOC(=O)c1c(C)[nH]c(/C=C2\C(=O)Nc3cccc(-c4cncnc4)c32)c1CCCN1CCN(C)CC1
> 20 µM	–	CCOC(=O)c1c(C)[nH]c(/C=C2\C(=O)Nc3cccc(-c4nccs4)c32)c1CCCN1CCN(C)CC1
> 20 µM	–	CCN(CC)CCNC(=O)c1c(C)[nH]c(/C=C2\C(=O)Nc3cccc(-c4cncc(C(=O)O)c4)c32)c1C
> 20 µM	–	O=C1Nc2cccc(C3CCNCC3)c2/C1=C/c1[nH]cc(C(=O)O)c1CCO
> 20 µM	–	Cc1cc(C(=O)O)c(/C=C2\C(=O)Nc3cccc(C4CCNCC4)c32)[nH]1
> 20 µM	0.08 µM	O=C1Nc2cccc(-c3ccncc3)c2/C1=C/c1[nH]cc2c1CCOC2=O
